Assay results as given in patent US4914091A, “Esters of cephalosporin derivitives” (American Cyanamid Company, priority 1984, dated 1990).
Like-named read-outs stand apart in the source and are kept apart here.

Experiments:
Klebsiella pneumoniae = test: In vivo activity against lethal intraperitoneal Klebsiella pneumoniae infection in mice, single oral or subcutaneous dose; set-up: species or system Klebsiella pneumoniae (infection in Charles River CD-1 mice); settings: CD-1 mice
From the text: Other representative compounds of the present invention were similarly tested against a lethal infection of Klebsiella pneumoniae in mice. Charles River CD-1 mice, each weighing about 20 g, were infected intraperitoneally with a lethal dose of Klebsiella pneumoniae. The median effective doses (ED50) in mg/kg were derived from the pooled data of three separate tests (including two range finding tests). The control, 7β-[2-(2-amino thiazol-4-yl)-(Z)-2-methoximinoacetamido]-3-[(1,2,3-thiadiazol-5-yl)-thiomethyl]ceph-3-em-4-carboxylic acid, provides a basis for comparison. All compounds were administered by single subcutaneous dose and single oral dose.

Escherichia coli No. 311 = test: In vivo activity against lethal intraperitoneal Escherichia coli No. 311 infection in mice, single oral or subcutaneous dose; set-up: species or system Escherichia coli (infection in Charles River CD-1 mice); settings: E. coli No. 311, CD-1 mice; for ED50: Escherichia coli, pooled data of three tests (cefaclor: estimated from two separate tests)
Procedure: To establish the pro-drug activity of, for example, the pivaloyloxymethyl ester of 7β-[2-(2-aminothiazol-4-yl)-(Z)-2-methoximinoacetamido]-3-[(1,2,3-thiadiasol-5-yl)-thiomethyl]ceph-3-em-4-carboxylic acid, the unesterified carboxylic acid and cefaclor (as control) were administered by single subcutaneous dose and single oral dose to separate groups of Charles River CD-1 mice, each weighing about 20 g, which mice had been infected intraperitoneally with a lethal dose of Escherichia coli No. 311. The median effective doses (ED50) in mg/kg were derived from the pooled data of three separate tests (including two range finding tests. The results of this testing appear in Table I.

[1] = single oral dose, pooled data of three tests, (95% Conf. Lim.), read-out: ED50, Single Oral Dose
[2] = sc, single subcutaneous dose, pooled data of three tests, (95% Conf. Lim.), read-out: ED50, Single Subcut. Dose
[3] = sc, single subcutaneous dose, read-out: ED50, Single Subcut. Dose
[4] = single oral dose, read-out: ED50, Single Oral Dose

## CO/N=C(\C(=O)N[C@@H]1C(=O)N2C(C(=O)OC(C)OC(C)=O)=C(CSc3cnns3)CS[C@H]12)c1csc(N)n1 (stereo partly drawn) [Acetoxyethyl ester, Acetoxyethyl 7β-[2-(2-aminothiazol-4-yl)-(Z)-2-methoximinoacetamido]-3-[(1,2,3-thiadiazol-5-yl)-thiomethyl]ceph-3-em-4-carboxylate]
Klebsiella pneumoniae
  Ratio Oral ED50 / Subcutaneous ED50: 2
Klebsiella pneumoniae; [1]
  ED50: 2 to 4 mg/kg
Klebsiella pneumoniae; [2]
  ED50: 1 to 2 mg/kg

## CO/N=C(\C(=O)N[C@@H]1C(=O)N2C(C(=O)OCOC(C)=O)=C(CSc3cnns3)CS[C@H]12)c1csc(N)n1 [Acetoxymethyl, Acetoxymethyl 7β-[2-(2-aminothiazol-4-yl)-(Z)-2-methoximinoacetamido]-3-[(1,2,3-thiadiazol-5-yl)thiomethyl]ceph-3-em-4-carboxylate]
Klebsiella pneumoniae
  Ratio Oral ED50 / Subcutaneous ED50: 8
Klebsiella pneumoniae; [1]
  ED50: 8 to 16 mg/kg
Klebsiella pneumoniae; [2]
  ED50: 1 to 2 mg/kg

## CO/N=C(\C(=O)N[C@@H]1C(=O)N2C(C(=O)OCOC(=O)C34CC5CC(CC(C5)C3)C4)=C(CSc3cnns3)CS[C@H]12)c1csc(N)n1 [Adamantylcarbonyl-oxymethyl, Adamantane-1-carbonyloxymethyl-7β-[2-(2-aminothiazol-4-yl)-(Z)-2-methoximinoacetamido]-3-[(1,2,3-thiadiazol-5-yl)-thiomethyl]ceph-3-em-4-carboxylate]
Klebsiella pneumoniae
  Ratio Oral ED50 / Subcutaneous ED50: 2
Klebsiella pneumoniae; [1]
  ED50: 2 to 4 mg/kg
Klebsiella pneumoniae; [2]
  ED50: 1 to 2 mg/kg

## N[C@@H](C(=O)N[C@@H]1C(=O)N2C(C(=O)O)=C(Cl)CS[C@H]12)c1ccccc1 [Cefaclor]
Escherichia coli No. 311
  Ratio Oral ED50 / Subcutaneous ED50: 2.8
Escherichia coli No. 311; [3]
  ED50: 5.7 mg/kg
Escherichia coli No. 311; [4]
  ED50: 16 mg/kg

## CCCCCCCCCCOCOC(=O)C1=C(CSc2cnns2)CS[C@@H]2[C@H](NC(=O)/C(=N\OC)c3csc(N)n3)C(=O)N12 [Declyoxymethyl ester, Decyloxymethyl 7β-[2-(2-aminothiazol-4-yl)-(Z)-2-methoximinoacetamido]-3-[(1,2,3-thiadiazol-5-yl)-thiomethyl]ceph-3-em-4-carboxylate]
Klebsiella pneumoniae
  Ratio Oral ED50 / Subcutaneous ED50: 4
Klebsiella pneumoniae; [1]
  ED50: 8 to 16 mg/kg
Klebsiella pneumoniae; [2]
  ED50: 2 to 4 mg/kg

## CCOC(=O)OC(C)OC(=O)C1=C(CSc2cnns2)CS[C@@H]2[C@H](NC(=O)/C(=N\OC)c3csc(N)n3)C(=O)N12 (stereo partly drawn) [Ethoxycarbonyl-Ethoxyethyl ester]
Klebsiella pneumoniae
  Ratio Oral ED50 / Subcutaneous ED50: 2
Klebsiella pneumoniae; [1]
  ED50: 1 to 2 mg/kg
Klebsiella pneumoniae; [2]
  ED50: 0.5 to 1 mg/kg

## COCOC(=O)C1=C(CSc2cnns2)CS[C@@H]2[C@H](NC(=O)/C(=N\OC)c3csc(N)n3)C(=O)N12 [Methoxymethyl ester, Methoxymethyl 7β-[2-(2-aminothiazol-4-yl)-(Z)-2-methoximinoacetamido]-3-[(1,2,3-thiadiazol-5-yl)-thiomethyl]ceph-3-em-4-carboxylate]
Klebsiella pneumoniae
  Ratio Oral ED50 / Subcutaneous ED50: 16
Klebsiella pneumoniae; [1]
  ED50: 8 to 16 mg/kg
Klebsiella pneumoniae; [2]
  ED50: 0.5 to 1 mg/kg

## CCCCCCCCCCCCCC(=O)OCOC(=O)C1=C(CSc2cnns2)CS[C@@H]2[C@H](NC(=O)/C(=N\OC)c3csc(N)n3)C(=O)N12 [Myristoyloxymethyl ester, Myristoyloxymethyl 7β-[2-(2-aminothiazol-4-yl)-(Z)-2-methoximinoacetamido]-3-[(1,2,3-thiadiazol-5-yl)-thiomethyl]ceph-3-em-4-carboxylate]
Klebsiella pneumoniae
  Ratio Oral ED50 / Subcutaneous ED50: 16
Klebsiella pneumoniae; [1]
  ED50: 8 to 16 mg/kg
Klebsiella pneumoniae; [2]
  ED50: 0.5 to 1 mg/kg

## CO/N=C(\C(=O)N[C@@H]1C(=O)N2C(C(=O)OC3OC(=O)c4ccccc43)=C(CSc3cnns3)CS[C@H]12)c1csc(N)n1 (stereo partly drawn) [Phthalidyl ester, Phthalidyl 7β-[2-(2-aminothiazol-4-yl)-(Z)-2-methoximinoacetamido]-3-[(1,2,3-thiadiazol-5-yl)-thiomethyl]ceph-3-em-4-carboxylate]
Klebsiella pneumoniae
  Ratio Oral ED50 / Subcutaneous ED50: 16
Klebsiella pneumoniae; [1]
  ED50: 8 to 16 mg/kg
Klebsiella pneumoniae; [2]
  ED50: 0.5 to 1 mg/kg

## CO/N=C(\C(=O)N[C@@H]1C(=O)N2C(C(=O)OCOC(=O)C(C)(C)C)=C(CSc3cnns3)CS[C@H]12)c1csc(N)n1 [Pivaloyloxymethyl ester, Pivaloyloxymethyl 7β-[2-(2-aminothiazol-4-yl)-(Z)-2-methoximinoacetamido]-3-[(1,2,3-thiadiazol-5-yl)-thiomethyl]ceph-3-em-4-carboxylate]
Escherichia coli No. 311
  Ratio Oral ED50 / Subcutaneous ED50: 3.8
Escherichia coli No. 311; [3]
  ED50: 0.53 mg/kg
Escherichia coli No. 311; [4]
  ED50: 2 mg/kg

## CO/N=C(\C(=O)N[C@@H]1C(=O)N2C(C(=O)O)=C(CSc3cnns3)CS[C@H]12)c1csc(N)n1 [Unesterified acid, 7β-[2-(2-aminothiazol-4-yl)-(Z)-2-methoximinoacetamido]-3-[(1,2,3-thiadiazol-5-yl)-thiomethyl]ceph-3-em-4-carboxylic acid, reference compound]
Klebsiella pneumoniae
  Ratio Oral ED50 / Subcutaneous ED50: 16
Klebsiella pneumoniae; [1]
  ED50: 8 to 16 mg/kg
Klebsiella pneumoniae; [2]
  ED50: 0.5 to 1 mg/kg
Escherichia coli No. 311
  Ratio Oral ED50 / Subcutaneous ED50: 28
Escherichia coli No. 311; [3]
  ED50: 0.26 mg/kg
Escherichia coli No. 311; [4]
  ED50: 7.2 mg/kg

## CO/N=C(\C(=O)N[C@@H]1C(=O)N2C(C(=O)OCOC(=O)c3ccccc3)=C(CSc3cnns3)CS[C@H]12)c1csc(N)n1 [benzoyloxymethyl ester, Benzoyloxymethyl 7β-[2-(2-aminothiazol-4-yl)-(Z)-2-methoximinoacetamido]-3-[(1,2,3-thiadiazol-5-yl)-thiomethyl]ceph-3-em-4-carboxylate]
Klebsiella pneumoniae
  Ratio Oral ED50 / Subcutaneous ED50: 2
Klebsiella pneumoniae; [1]
  ED50: 4 to 8 mg/kg
Klebsiella pneumoniae; [2]
  ED50: 2 to 4 mg/kg

## Methylthiomethyl 7β-[2-(2-aminothiazol-4-yl)-(Z)-2-methoximinoacetamido]-3-[(1,2,3-thiadiazol-5-yl)-thiomethyl]ceph-3-em and ceph-2-em-carboxylate [methylthiomethyl ester]
Klebsiella pneumoniae
  Ratio Oral ED50 / Subcutaneous ED50: 4
Klebsiella pneumoniae; single oral dose, pooled data of three tests, (95% Conf. Lim.)
  ED50, Single Oral Dose: 8 to 16 mg/kg
Klebsiella pneumoniae; single subcutaneous dose, pooled data of three tests, (95% Conf. Lim.)
  ED50, Single Subcut. Dose: 2 to 4 mg/kg
